Experimental findings from article PMC7677715 (Redox Biology, 2020) are described below.

The structures appear in SMILES notation.

For test [1], the target named is T1, γ-TTP (α-tocopherol transfer protein A156L) (Homo sapiens, UniProt P49638, A156L).
T1 sequence (P49638 48-278 A156L): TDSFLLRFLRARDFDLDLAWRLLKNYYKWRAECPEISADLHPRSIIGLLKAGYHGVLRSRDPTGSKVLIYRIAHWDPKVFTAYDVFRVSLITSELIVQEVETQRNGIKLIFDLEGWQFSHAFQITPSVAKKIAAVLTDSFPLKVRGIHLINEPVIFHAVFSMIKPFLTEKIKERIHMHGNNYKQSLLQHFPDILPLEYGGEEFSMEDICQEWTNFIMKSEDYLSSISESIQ
Put plainly: X-ray crystal structure. It counts as binding.

Test [2] has as its target T2, α-tocopherol transfer protein (α-TTP) (Homo sapiens, UniProt P49638).
T2 sequence (P49638 1-278): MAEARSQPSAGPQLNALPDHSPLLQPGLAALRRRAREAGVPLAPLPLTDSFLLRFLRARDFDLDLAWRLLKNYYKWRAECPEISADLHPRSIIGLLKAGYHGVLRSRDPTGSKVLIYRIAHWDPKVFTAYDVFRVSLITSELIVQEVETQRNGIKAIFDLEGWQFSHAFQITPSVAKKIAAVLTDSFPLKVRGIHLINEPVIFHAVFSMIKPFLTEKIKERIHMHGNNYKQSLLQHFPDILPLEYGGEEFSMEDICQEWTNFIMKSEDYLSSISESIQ
Description: FRET ligand transfer to/from liposomes. The test is classed as binding.

Take `Cc1c(O)cc2c(c1C)O[C@](C)(CCC[C@H](C)CCC[C@H](C)CCCC(C)C)CC2` [RRR-γ-tocopherol]: the equilibrium dissociation constant (Kd) in test [1] turned out to be 53.8 nM.

With `Cc1c(O)cc2c(c1C)O[C@](C)(CCC[C@H](C)CCC[C@H](C)CCCC(C)C)CC2` [γ-tocopherol], the Kp in test [2] turned out to be 4.05.

In general, Kd refers to a measure of binding affinity in units of concentration. A lower Kd goes with a tighter complex.
